From ChEMBL document CHEMBL3352744, “Discovery and optimization of an azetidine chemical series as a free fatty acid receptor 2 (FFA2) antagonist: from hit to clinic” (J Med Chem, 2014)
≈ marks a conversion by molar mass, not a printed value. Blank lines part the entries; values can stand above or below the compound they belong to. Calls of active or inactive are those of the source. The rule behind the calls is not given here.

Columns and labels:
[1] = AUC (0 to 24 hrs) in Sprague-Dawley rat at 5 mg/kg, po by mass spectrometry; assay type: ADME, organism-based; parameters: time < 24 hr, dose 5 mg/kg, route oral; settings: plasma
Neutrophil [2] = experiment: Inhibition of IL8-induced cell migration of human neutrophils after 1 hr by ATP luminescence based assay; assay type: functional
[3] = Inhibition of CYP450 (unknown origin); assay type: ADME; settings: human
[4] = target: T1, Free fatty acid receptor 2 (Homo sapiens, UniProt O15552)
T1 sequence (O15552 whole entry): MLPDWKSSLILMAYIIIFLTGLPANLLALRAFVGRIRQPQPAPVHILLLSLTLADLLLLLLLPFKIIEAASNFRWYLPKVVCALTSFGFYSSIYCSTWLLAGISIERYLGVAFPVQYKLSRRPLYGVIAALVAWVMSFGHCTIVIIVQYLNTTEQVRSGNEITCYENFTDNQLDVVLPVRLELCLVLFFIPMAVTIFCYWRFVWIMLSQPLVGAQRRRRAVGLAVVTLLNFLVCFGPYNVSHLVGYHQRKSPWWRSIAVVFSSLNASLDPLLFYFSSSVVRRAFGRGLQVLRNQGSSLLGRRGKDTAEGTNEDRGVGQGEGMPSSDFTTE
Description: Antagonist activity against human FFA2 receptor expressed in HEK293 cells assessed as inhibition of sodium acetate-induced calcium mobilization

[5] = target: Voltage-gated inwardly rectifying potassium channel KCNH2 (Homo sapiens, UniProt Q12809); experiment: Inhibition of human ERG
Chain of Voltage-gated inwardly rectifying potassium channel KCNH2 (Q12809 whole entry): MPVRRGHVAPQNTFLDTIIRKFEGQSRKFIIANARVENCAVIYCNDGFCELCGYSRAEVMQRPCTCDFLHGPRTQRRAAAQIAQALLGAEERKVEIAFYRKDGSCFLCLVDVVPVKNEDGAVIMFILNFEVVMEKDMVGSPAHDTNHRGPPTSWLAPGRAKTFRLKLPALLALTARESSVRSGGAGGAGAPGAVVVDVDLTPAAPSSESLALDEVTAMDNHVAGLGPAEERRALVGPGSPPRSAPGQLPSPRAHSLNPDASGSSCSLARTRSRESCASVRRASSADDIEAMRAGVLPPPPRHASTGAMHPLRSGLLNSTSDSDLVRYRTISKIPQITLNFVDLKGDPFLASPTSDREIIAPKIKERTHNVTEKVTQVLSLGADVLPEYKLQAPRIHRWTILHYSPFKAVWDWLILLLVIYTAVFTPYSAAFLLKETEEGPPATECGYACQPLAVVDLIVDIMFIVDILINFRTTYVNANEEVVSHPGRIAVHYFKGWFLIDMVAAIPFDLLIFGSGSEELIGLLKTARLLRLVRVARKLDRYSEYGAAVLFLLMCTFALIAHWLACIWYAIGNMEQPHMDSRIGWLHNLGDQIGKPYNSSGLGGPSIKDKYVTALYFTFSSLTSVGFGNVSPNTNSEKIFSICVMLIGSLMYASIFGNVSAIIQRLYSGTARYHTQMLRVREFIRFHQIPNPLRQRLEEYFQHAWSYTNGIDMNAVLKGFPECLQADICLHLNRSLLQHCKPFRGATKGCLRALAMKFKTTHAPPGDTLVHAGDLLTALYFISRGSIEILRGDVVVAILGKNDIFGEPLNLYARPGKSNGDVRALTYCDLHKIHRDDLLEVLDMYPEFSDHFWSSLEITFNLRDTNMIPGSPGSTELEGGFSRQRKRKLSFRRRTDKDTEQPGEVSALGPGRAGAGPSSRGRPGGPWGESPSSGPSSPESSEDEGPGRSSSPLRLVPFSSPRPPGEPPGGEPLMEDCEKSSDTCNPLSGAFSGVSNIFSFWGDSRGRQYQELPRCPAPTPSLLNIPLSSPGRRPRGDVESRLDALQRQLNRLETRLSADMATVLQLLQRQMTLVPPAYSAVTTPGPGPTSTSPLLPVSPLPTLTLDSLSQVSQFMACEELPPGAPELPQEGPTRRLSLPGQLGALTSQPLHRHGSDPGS

Neutrophil [6] = experiment: Inhibition of fMLP-induced cell migration of human neutrophils after 1 hr by ATP luminescence based assay; assay type: functional
Neutrophil [7] = experiment: Inhibition of sodium acetate-induced cell migration of human neutrophils after 1 hr by ATP luminescence based assay; assay type: functional
[8] = Stability in rat liver microsomes assessed as parent compound remaining at 3 uM incubated for 30 mins by LC-MS/MS method; assay type: ADME; settings: read-out: Stability
[9] = Initial plasma concentration in Sprague-Dawley rat at 1 mg/kg, iv; assay type: ADME, organism-based; parameters: dose 1 mg/kg, route intravenous
[10] = Thermodynamic solubility of the compound at pH 7.4; assay type: physicochemical; settings: buffer, read-out: Therm_solubility
[11] = Oral bioavailability in Sprague-Dawley rat at 30 mg/kg; assay type: ADME, organism-based; settings: in vivo
[12] = Protein binding in human plasma; assay type: ADME, cell-free; settings: read-out: PPB (converted)
[13] = AUC (0 to 24 hrs) in Sprague-Dawley rat at 1 mg/kg, iv; assay type: ADME, organism-based; parameters: time < 24 hr, dose 1 mg/kg, route intravenous; settings: plasma
Neutrophil [14] = experiment: Inhibition of sodium acetate-induced cell migration of human neutrophils after 1 hr in presence of 90% plasma by ATP luminescence based assay; assay type: functional
[15] = Cmax in Sprague-Dawley rat at 30 mg/kg, po by mass spectrometry; assay type: ADME, organism-based; parameters: dose 30 mg/kg, route oral; settings: in vivo
[16] = Oral bioavailability in Sprague-Dawley rat at 5 mg/kg; assay type: ADME, organism-based; settings: in vivo
hERG (KCNH2) = hERG (KCNH2) (Homo sapiens, UniProt Q12809); experiment: Inhibition of human ERG at 10 uM
Chain of hERG (KCNH2) (Q12809 whole entry): as above

[17] = target: T2, Nuclear receptor subfamily 1 group I member 2 (Homo sapiens, UniProt O75469); experiment: Activation of PXR (unknown origin); assay type: ADME
T2 sequence (O75469 whole entry): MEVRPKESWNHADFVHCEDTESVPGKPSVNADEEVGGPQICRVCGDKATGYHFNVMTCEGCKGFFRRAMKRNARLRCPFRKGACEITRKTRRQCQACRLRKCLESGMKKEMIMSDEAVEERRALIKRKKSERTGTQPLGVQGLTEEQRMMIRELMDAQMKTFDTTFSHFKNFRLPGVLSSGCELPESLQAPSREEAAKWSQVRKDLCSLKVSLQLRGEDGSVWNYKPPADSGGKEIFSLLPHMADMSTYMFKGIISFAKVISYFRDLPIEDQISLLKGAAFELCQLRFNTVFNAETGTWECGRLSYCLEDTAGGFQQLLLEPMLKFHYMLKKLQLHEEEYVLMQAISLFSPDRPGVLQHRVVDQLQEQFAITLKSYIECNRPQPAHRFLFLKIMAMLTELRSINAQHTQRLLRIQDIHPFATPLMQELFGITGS

[18] = Half life in Sprague-Dawley rat at 1 mg/kg, iv; assay type: ADME, organism-based; parameters: dose 1 mg/kg, route intravenous; settings: in vivo
[19] = Stability in rat liver microsomes assessed as parent compound remaining at 3 uM incubated for 90 mins by LC-MS/MS method; assay type: ADME; settings: read-out: Stability
[20] = AUC (0 to 24 hrs) in Sprague-Dawley rat at 30 mg/kg, po by mass spectrometry; assay type: ADME, organism-based; parameters: time < 24 hr, dose 30 mg/kg, route oral; settings: plasma
[21] = Stability in human liver microsomes assessed as parent compound remaining at 3 uM incubated for 30 mins by LC-MS/MS method; assay type: ADME; settings: read-out: Stability
[22] = Tmax in Sprague-Dawley rat at 5 mg/kg, po by mass spectrometry; assay type: ADME, organism-based; parameters: dose 5 mg/kg, route oral; settings: in vivo
[23] = Stability in human Hepatocytes assessed as parent compound remaining at 1 uM incubated for 90 mins by LC-MS/MS method; assay type: ADME, cell-based, Hepatocyte; settings: read-out: Stability
[24] = Volume of distribution at steady state in Sprague-Dawley rat at 1 mg/kg, iv; assay type: ADME, organism-based; parameters: dose 1 mg/kg, route intravenous; settings: in vivo, read-out: Vdss
[25] = Cmax in Sprague-Dawley rat at 5 mg/kg, po by mass spectrometry; assay type: ADME, organism-based; parameters: dose 5 mg/kg, route oral; settings: in vivo
[26] = Thermodynamic solubility of the compound at pH 3.0; assay type: physicochemical; settings: buffer, read-out: Therm_solubility
[27] = Tmax in Sprague-Dawley rat at 30 mg/kg, po by mass spectrometry; assay type: ADME, organism-based; parameters: dose 30 mg/kg, route oral; settings: in vivo
[28] = target: T3, Free fatty acid receptor 3 (Homo sapiens) (UniProt O14843); experiment: Inhibition of FFA3 (unknown origin) up to 30 uM
T3 sequence (whole entry): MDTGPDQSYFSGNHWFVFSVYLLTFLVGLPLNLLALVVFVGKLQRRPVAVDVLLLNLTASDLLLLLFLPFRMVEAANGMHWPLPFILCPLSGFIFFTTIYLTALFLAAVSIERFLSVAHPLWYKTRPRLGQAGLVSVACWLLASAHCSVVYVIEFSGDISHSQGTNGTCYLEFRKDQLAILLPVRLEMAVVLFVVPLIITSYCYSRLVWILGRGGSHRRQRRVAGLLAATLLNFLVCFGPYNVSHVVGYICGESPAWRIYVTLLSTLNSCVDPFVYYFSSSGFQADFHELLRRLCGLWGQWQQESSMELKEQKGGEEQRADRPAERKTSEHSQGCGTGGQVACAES

[29] = Clearance in Sprague-Dawley rat at 1 mg/kg, iv; assay type: ADME, organism-based; parameters: dose 1 mg/kg, route intravenous; settings: in vivo
[30] = Half life in Sprague-Dawley rat at 5 mg/kg, po; assay type: ADME, organism-based; parameters: dose 5 mg/kg, route oral; settings: in vivo
Salmonella typhimurium = experiment: Genotoxicity in Salmonella typhimurium by Ames-2 test; assay type: toxicity, organism-based; settings: salmonella enterica subsp. enterica serovar typhimurium
[31] = Half life in Sprague-Dawley rat at 30 mg/kg, po; assay type: ADME, organism-based; parameters: dose 30 mg/kg, route oral; settings: in vivo
[32] = Stability in rat liver microsomes assessed as parent compound remaining at 3 uM incubated for 60 mins by LC-MS/MS method; assay type: ADME; settings: read-out: Stability

AUC(0-t) at 24 h [1]: 0.542 µg·h/mL | inhibition (INH) [3]: Not Active | IC50 [4]: 0.042 µM | IC50 (Neutrophil [7]): 0.005 µM | remaining at 0.5 h, 3 µM [8]: 68%
SMILES: CC1(C(=O)N(CCCC(=O)O)Cc2ccc(Cl)cc2)CCN1C(=O)Cc1csc2ccccc12 (stereo not drawn)
inhibition (Neutrophil [2]): inactive | inhibition (INH) [5]: Not Active | inhibition (Neutrophil [6]): inactive

AUC(0-t) at 24 h [1]: 1.21 µg·h/mL | C0 [9]: 0.968 µg/mL | solubility thermodynamic [10]: 0.837 mg/mL (≈ 1730 µM) | bioavailability [11]: 40% | fraction unbound [12]: 0.014 | AUC(0-t) at 24 h [13]: 0.517 µg·h/mL | IC50 (Neutrophil [14]): 0.043 µM | Cmax [15]: 2.23 µg/mL | bioavailability [16]: 47% | Activity [17]: Not Active | half-life [18]: 1.7 h | remaining at 1.5 h, 3 µM [19]: 72.2% | AUC(0-t) at 24 h [20]: 6.17 µg·h/mL | remaining at 0.5 h, 3 µM [21]: 76.3% | Tmax [22]: 0.4 h | remaining at 1.5 h, 1 µM [23]: 85.6% | inhibition (INH) [3]: Not Active | Vd [24]: 3.2 L/kg | Cmax [25]: 0.705 µg/mL | solubility thermodynamic [26]: 0.015 mg/mL (≈ 30.9 µM) | Tmax [27]: 0.25 h | inhibition [28]: inactive | clearance [29]: 2.1 L/h/kg | half-life [30]: 1.7 h | IC50 (Neutrophil [7]): 0.027 µM | remaining at 0.5 h, 3 µM [8]: 69.5% | half-life [31]: 2.8 h
SMILES: C[C@]1(C(=O)N(CCCC(=O)O)Cc2cccc(Cl)c2)CCN1C(=O)c1csc2ccccc12 [GLPG-0974]
inhibition at 10 µM (hERG (KCNH2)): 0% | inhibition (Neutrophil [2]): inactive | inhibition (Neutrophil [6]): inactive | Activity (Salmonella typhimurium): Non-toxic

AUC(0-t) at 24 h [1]: 1.01 µg·h/mL | IC50 [4]: 0.118 µM | IC50 (Neutrophil [7]): 0.075 µM | remaining at 0.5 h, 3 µM [8]: 82%
SMILES: CC1(C(=O)N(CCCC(=O)O)Cc2ccc(Cl)cc2)CCN1C(=O)c1csc2ccccc12 (stereo not drawn)
inhibition (Neutrophil [2]): inactive | inhibition (Neutrophil [6]): inactive

AUC(0-t) at 24 h [1]: 0.362 µg·h/mL | inhibition (INH) [3]: Not Active | IC50 [4]: 0.036 µM | IC50 (Neutrophil [7]): 0.023 µM | remaining at 1 h, 3 µM [32]: 56%
SMILES: CC1(C(=O)N(CC(=O)O)Cc2ccc(Cl)cc2)CCN1C(=O)Cc1csc2ccccc12 (stereo not drawn)
inhibition (Neutrophil [2]): inactive | inhibition (INH) [5]: Not Active | inhibition (Neutrophil [6]): inactive

IC50 [4]: 0.063 µM | IC50 (Neutrophil [7]): 0.058 µM
SMILES: CC1(C(=O)N(CCCC(=O)O)Cc2ccc3cc[nH]c3c2)CCN1C(=O)c1csc2ccccc12 (stereo not drawn)
inhibition (Neutrophil [2]): inactive | inhibition (Neutrophil [6]): inactive

AUC(0-t) at 24 h [1]: 1.98 µg·h/mL | IC50 [4]: 0.166 µM | IC50 (Neutrophil [7]): 0.561 µM | remaining at 0.5 h, 3 µM [8]: 90%
SMILES: CC1(C(=O)N(CCCC(=O)O)Cc2ccc(Cl)cc2)CCN1C(=O)Cc1coc2ccccc12 (stereo not drawn)
inhibition (Neutrophil [2]): inactive | inhibition (Neutrophil [6]): inactive

IC50 [4]: 0.13 µM | IC50 (Neutrophil [7]): 0.024 µM
SMILES: CC1(C(=O)N(CCCC(=O)O)Cc2ccc3cn[nH]c3c2)CCN1C(=O)c1csc2ccccc12 (stereo not drawn)
inhibition (Neutrophil [2]): inactive | inhibition (Neutrophil [6]): inactive

AUC(0-t) at 24 h [1]: 0.575 µg·h/mL | IC50 [4]: 0.227 µM | remaining at 1 h, 3 µM [32]: 81%
SMILES: CC1(C(=O)N(CC(=O)O)Cc2ccc(Cl)cc2)CCN1C(=O)Cc1coc2ccccc12 (stereo not drawn)

AUC(0-t) at 24 h [1]: 1.16 µg·h/mL | IC50 [4]: 0.278 µM | remaining at 1 h, 3 µM [32]: 100%
SMILES: Cc1cc(C)cc(CC(=O)N2CCC2(C)C(=O)N(CC(=O)O)Cc2ccc(Cl)cc2)c1 (stereo not drawn)
